Active and inactive are the calls of the source. The rule behind the calls is not given here.
Key:
[1] = tested on: HT-29; experiment: Antiproliferative activity against human HT-29 cells after 72 hrs by MTT assay; format: functional, cell-based; conditions: HT-29, 72 h
[2] = tested on: A549; experiment: Antiproliferative activity against human A549 cells after 72 hrs by MTT assay; format: functional, cell-based; conditions: A549, 72 h
[3] = tested on: MDA-MB-231; experiment: Antiproliferative activity against human MDA-MB-231 cells after 72 hrs by MTT assay; format: functional, cell-based; conditions: MDA-MB-231, 72 h
[4] = tested on: HT-29; experiment: Induction of apoptosis in human HT-29 cells assessed as early apoptotic cells at 5 ug/mL after 72 hrs by Annexin V-FITC/propidium iodide staining-based flow cytometric analysis (reference value: 0%); format: functional
[5] = Antiproliferative activity against human MCF7/DX cells after 72 hrs by MTT assay; format: functional, cell-based
[6] = tested on: HT-29; experiment: Induction of apoptosis in human HT-29 cells assessed as late apoptotic cells at 5 ug/mL after 72 hrs by Annexin V-FITC/propidium iodide staining-based flow cytometric analysis (reference value: 0.1%); format: functional
[7] = tested on: HT-29; experiment: Antiproliferative activity against human HT-29 cells at 10 ug/ml after 72 hrs by IncuCyte live-cell imaging assay; format: functional, cell-based
[8] = tested on: HT-29; experiment: Cytotoxicity against human HT-29 cells assessed as increase in dead cells at 10 ug/mL up to 36 hrs by yoyo-1 dye-based fluorescence assay; format: functional, cell-based
[9] = tested on: MCF7; experiment: Antiproliferative activity against human MCF7 cells after 72 hrs by MTT assay; format: functional, cell-based; conditions: MCF7, 72 h
[10] = tested on: HT-29; experiment: Antiproliferative activity against human HT-29 cells at 3.33 ug/ml after 36 to 72 hrs by phase contrast microscopy; format: functional, cell-based
[11] = tested on: FHC; experiment: Cytotoxicity against human FHC cells after 72 hrs by MTT assay; format: cell-based
[12] = tested on: HT-29; experiment: Antimigratory activity against human HT-29 cells at 3.33 ug/mL after 48 to 72 hrs by wound healing assay; format: functional, cell-based
[13] = tested on: A549/CDDP; experiment: Antiproliferative activity against human A549/CDDP cells after 72 hrs by MTT assay; format: functional, cell-based
[14] = Selectivity index, ratio of IC50 for human FHC cells to IC50 for human HT-29 cells; format: toxicity; conditions: FHC cells and HT-29 cells, read-out: Ratio IC50

IC50 [1] | IC50 [2] | IC50 [3] | Compound | other results
1320 nM | > 20000 nM | – | COc1cc2c(Oc3c(F)cc(NC(=O)NN4C(=O)CCSC4c4c(F)cccc4F)cc3F)ccnc2cc1OCCCN1CCc2sccc2C1 (stereo not given) | –
270 nM | 400 nM | 9650 nM | COc1cc2c(Oc3c(F)cc(NC(=O)NN4C(=O)CCSC4c4c(F)cccc4F)cc3F)ccnc2cc1OCCCN1CCCC1 (stereo not given) | –
1860 nM | 2360 nM | – | COc1cc2c(Oc3ccc(NC(=O)NN4C(=O)CSC4c4c(F)cccc4F)c4ccccc34)ccnc2cc1OCCCN1CCCC1 (stereo not given) | –
350 nM | 690 nM | 9040 nM | COc1cc2c(Oc3ccc(NC(=O)NN4C(=O)CSC4c4c(F)cccc4F)cc3F)ccnc2cc1OCCCN1CCCC1 (stereo not given) | –
11500 nM | 9520 nM | 13400 nM | COc1cc2nccc(Oc3ccc(NC(=O)C4(C(=O)Nc5ccc(F)cc5)CC4)cc3)c2cc1OC [CABOZANTINIB] | Activity [4]: 78.4%; IC50 [5]: > 50000 nM; Activity [6]: 10.9%; Activity [7]: Active; Activity [8]: Active; IC50 [9]: 8570 nM; Activity [10]: Active; IC50 [11]: 4400 nM; Activity [12]: Active; IC50 [13]: 19600 nM
410 nM | 1630 nM | 4350 nM | COc1cc2c(Oc3c(F)cc(NC(=O)NN4C(=O)CCSC4c4c(F)cccc4F)cc3F)ccnc2cc1OCCCN1CCC(C)CC1 (stereo not given) | –
91 nM | 450 nM | 3790 nM | CCN(CC)CCCOc1cc2nccc(Oc3c(F)cc(NC(=O)NN4C(=O)CSC4c4c(F)cccc4F)cc3F)c2cc1OC (stereo not given) | IC50 [5]: 3400 nM; selectivity ratio [14]: 5.9; IC50 [9]: 1600 nM; IC50 [11]: 540 nM; IC50 [13]: 540 nM
410 nM | 690 nM | 8120 nM | COc1cc2c(Oc3c(F)cc(NC(=S)NN4C(=O)CSC4c4c(F)cccc4F)cc3F)ccnc2cc1OCCCN1CCCC1 (stereo not given) | –
950 nM | 1450 nM | – | COc1cc2c(Oc3c(F)cc(NC(=O)NN4C(=O)C(C)(C)SC4c4c(F)cccc4F)cc3F)ccnc2cc1OCCCN1CCCC1 (stereo not given) | –
490 nM | 2380 nM | – | COc1cc2c(Oc3c(F)cc(NC(=O)NN4C(=O)CSC4c4c(F)cccc4F)cc3F)ccnc2cc1OCCN1CCC(N2CCCCC2)CC1 (stereo not given) | –
470 nM | 1930 nM | – | COc1cc2c(Oc3c(F)cc(NC(=O)NN4C(=O)CSC4c4c(F)cccc4F)cc3F)ccnc2cc1OCCCN1C[C@H]2CCCC[C@H]2C1 (stereo not given in full) | –
630 nM | 960 nM | – | COc1cc2c(Oc3ccc(NC(=O)NN4C(=O)CSC4c4c(F)cccc4F)c(Cl)c3)ccnc2cc1OCCCN1CCCC1 (stereo not given) | –
280 nM | 380 nM | 5380 nM | COc1cc2c(Oc3c(F)cc(NC(=O)NN4C(=O)CSC4c4c(F)cccc4F)cc3F)ccnc2cc1OCCCN1CCC(N2CCCCC2)CC1 (stereo not given) | –
670 nM | 830 nM | – | COc1cc2c(Oc3c(F)cc(NC(=O)NN4C(=O)C(C)SC4c4c(F)cccc4F)cc3F)ccnc2cc1OCCCN1CCCC1 (stereo not given) | –
350 nM | 1520 nM | 5910 nM | CCN1CCN(CCOc2cc3nccc(Oc4c(F)cc(NC(=O)NN5C(=O)CSC5c5c(F)cccc5F)cc4F)c3cc2OC)CC1 (stereo not given) | –
150 nM | 510 nM | 4360 nM | COc1cc2c(Oc3c(F)cc(NC(=O)NN4C(=O)CSC4c4c(F)cccc4F)cc3F)ccnc2cc1OCCCN1CCN(C)CC1 (stereo not given) | –
790 nM | 3610 nM | – | COc1cc2c(Oc3c(F)cc(NC(=O)NN4C(=O)CCSC4c4c(F)cccc4F)cc3F)ccnc2cc1OCCCN1C[C@H]2CCCC[C@H]2C1 (stereo not given in full) | –
220 nM | 970 nM | 3830 nM | COc1cc2c(Oc3c(F)cc(NC(=O)NN4C(=O)CSC4c4c(F)cccc4F)cc3F)ccnc2cc1OCCCN1CCC(C)CC1 (stereo not given) | –
480 nM | 880 nM | – | COc1cc2c(Oc3ccc(NC(=O)NN4C(=O)CSC4c4c(F)cccc4F)cc3Cl)ccnc2cc1OCCCN1CCCC1 (stereo not given) | –
1410 nM | > 20000 nM | – | COc1cc2c(Oc3c(F)cc(NC(=O)NN4C(=O)CSC4c4c(F)cccc4F)cc3F)ccnc2cc1OCCCN1CCc2sccc2C1 (stereo not given) | –
230 nM | 560 nM | 8350 nM | COc1cc2c(Oc3c(F)cc(NC(=O)NN4C(=O)CSC4c4c(F)cccc4F)cc3F)ccnc2cc1OCCCN1CCCC1 (stereo not given) | –
830 nM | 1390 nM | – | CCN1CCN(CCCCOc2cc3nccc(Oc4c(F)cc(NC(=O)NN5C(=O)CSC5c5c(F)cccc5F)cc4F)c3cc2OC)CC1 (stereo not given) | –

Reference: ChEMBL document CHEMBL4330059, “Discovery of N1-(4-((7-(3-(4-ethylpiperazin-1-yl)propoxy)-6-methoxyquinolin-4-yl)oxy)-3,5-difluorophenyl)-N3-(2-(2,6-difluorophenyl)-4-oxothiazolidin-3-yl)urea as a multi-tyrosine kinase inhibitor for drug-sensitive and drug-resistant cancers treatment” (Eur J Med Chem, 2019)
